# Measurements: US7868005B2, “Pyrazinyl substituted piperazine-piperidines with CXCR3 antagonist activity” (Schering Corporation, priority 2005, dated 2011)
# pIC50: −log10 of the molar value.
# Molecular target: T1, human CXCR3 (N-delta 4) (Homo sapiens, UniProt P49682)
# T1 construct: CD8 leader (N); Flag; expressed in transfected cells; membranes prepared
# T1 sequence (P49682 5-368 limits assumed): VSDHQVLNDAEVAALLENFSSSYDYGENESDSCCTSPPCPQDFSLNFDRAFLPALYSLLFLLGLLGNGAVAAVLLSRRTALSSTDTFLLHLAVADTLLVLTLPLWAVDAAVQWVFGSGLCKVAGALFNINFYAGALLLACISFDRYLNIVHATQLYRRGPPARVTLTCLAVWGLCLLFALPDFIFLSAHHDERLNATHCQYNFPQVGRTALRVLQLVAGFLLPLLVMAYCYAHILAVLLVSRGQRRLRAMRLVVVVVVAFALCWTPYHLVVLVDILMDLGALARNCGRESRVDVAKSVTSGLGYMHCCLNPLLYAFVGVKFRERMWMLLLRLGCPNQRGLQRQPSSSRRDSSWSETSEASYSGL
# Experiment: Human CXCR3 (N-delta 4) Scintillation Proximity Assay (SPA), [125I] IP-10 binding to Ba/F3-hCXCR3 membranes
# Settings: IC50 rating, Table 1; read-out: IC50
row,SMILES,pIC50
1,CC[C@H]1CN(c2nc(N)c(C(=O)NCCO)nc2Cl)CCN1C1CCN(Cc2ccc(Cl)cc2O[C@H]2CCOC2)CC1 [compound 189],7.00 to 7.60
2,CC[C@H]1CN(c2nc(N)c(C(=O)NCCO)nc2Cl)CCN1C1CCN(Cc2ccc(C#N)cc2OCC(=O)NCCO)CC1 [compound 191],7.00 to 7.60
3,CC[C@H]1CN(c2nc(N)c(C(=O)NCCO)nc2Cl)CCN1C1CCN([C@H](C(=O)OC)c2ccc(Cl)cc2)CC1 [compound 192],< 7.00
4,CC[C@H]1CN(c2nc(N)c(C(=O)NCCO)nc2Cl)CCN1C1CCN(Cc2ccc(C#N)cc2OCCN2CCCC2=O)CC1 [compound 193],< 7.00
5,CC[C@H]1CN(c2nc(N)c(C(=O)NCCO)nc2Cl)CCN1C1CCN(Cc2ccc(Cl)cc2C(C)C(=O)OC)CC1 (some centres unmarked) [compound 194],< 7.00
6,CC[C@H]1CN(c2nc(N)c(C(=O)NCCO)nc2Cl)CCN1C1CCN(Cc2ccc(Cl)cc2OCCN2CCCC2=O)CC1 [compound 195],< 7.00
7,CC[C@H]1CN(c2nc(N)c(C(=O)NCCO)nc2Cl)CCN1C1CCN(Cc2ccc(Cl)cc2NS(C)(=O)=O)CC1 [compound 196],< 7.00
8,CC[C@H]1CN(c2nc(N)c(C(=O)NCCO)nc2Cl)CCN1C1CCN(Cc2ccc(Cl)cc2C(=O)N2CCOCC2)CC1 [compound 197],< 7.00
9,CC[C@H]1CN(c2nc(N)c(C(=O)NCCO)nc2Cl)CCN1C1CCN([C@H](C(=O)OC)c2ccc(F)c(F)c2)CC1 [compound 198],< 7.00
10,CC[C@H]1CN(c2nc(N)c(C(=O)NCCO)nc2Cl)CCN1C1CCN(C(CCN)c2ccc(Cl)cc2)CC1 (some centres unmarked) [compound 199],< 7.00
11,CC[C@H]1CN(c2nc(N)c(C(=O)NCCO)nc2Cl)CCN1C1CCN([C@H](C(=O)OC)c2ccc(C#N)cc2)CC1 [compound 200],< 7.00
12,CC[C@H]1CN(c2nc(N)c(C(=O)NCCO)nc2Cl)CCN1C1CCN(Cc2c(F)cc(F)c(F)c2O)CC1 [compound 201],< 7.00
13,CC[C@H]1CN(c2nc(N)c(C(=O)NCCO)nc2Cl)CCN1C1CCN(Cc2ccc(Cl)cc2C(C)C(=O)O)CC1 (some centres unmarked) [compound 202],< 7.00
14,CC[C@H]1CN(c2nc(N)c(C(=O)NCCO)nc2Cl)CCN1C1CCN([C@H](C(=O)O)c2ccc(Cl)cc2)CC1 [compound 203],< 7.00
15,CC[C@H]1CN(c2nc(N)c(C(=O)NCCO)nc2Cl)CCN1C1CCN(C(Cc2nn[nH]n2)c2ccc(Cl)cc2)CC1 (some centres unmarked) [compound 204],< 7.00
16,CC[C@H]1CN(c2nc(N)c(C(=O)NCCO)nc2Cl)CCN1C1CCN(Cc2ccc(N3CCOCC3)c(F)c2F)CC1 [compound 205],< 7.00
17,CC[C@H]1CN(c2nc(N)c(C(=O)NCCO)nc2Cl)CCN1C1CCN(C(C(=O)OC)c2ccc(Cl)cc2OC)CC1 (some centres unmarked) [compound 206],< 7.00
18,CC[C@H]1CN(c2nc(N)c(C(=O)NCCO)nc2Cl)CCN1C1CCN(C(c2ccc(Cl)cc2)c2nccs2)CC1 (some centres unmarked) [compound 207],< 7.00

row,SMILES,pIC50
1,CC[C@H]1CN(c2nc(N)c(C(=O)NCc3nccs3)nc2Cl)CCN1C1CCN(Cc2ccc(C#N)cc2)CC1 [compound 208],< 7.00
2,CC[C@H]1CN(c2nc(N)c(C(=O)N3CC[C@H](NS(C)(=O)=O)C3)nc2Cl)CCN1C1CCN(Cc2ccc(Cl)cc2)CC1 [compound 209],< 7.00
3,CC[C@H]1CN(c2nc(N)c(C(=O)N[C@@H]3CCCNC3=O)nc2Cl)CCN1C1CCN(Cc2ccc(C#N)cc2)CC1 [compound 210],< 7.00
4,CC[C@H]1CN(c2nc(N)c(C(=O)N[C@H]3CCN(C)C3=O)nc2Cl)CCN1C1CCN(Cc2ccc(C#N)cc2)CC1 [compound 211],< 7.00
5,CC[C@H]1CN(c2nc(N)c(C(=O)NCc3cc(O)no3)nc2Cl)CCN1C1CCN(Cc2ccc(Cl)cc2)CC1 [compound 212],< 7.00
6,CC[C@H]1CN(c2nc(N)c(C(=O)NCC(N)=O)nc2Cl)CCN1C1CCN(Cc2ccc(Cl)cc2)CC1 [compound 213],7.00 to 7.60
7,CC[C@H]1CN(c2nc(N)c(C(=O)NC[C@@H](C)O)nc2Cl)CCN1C1CCN(Cc2ccc(Cl)cc2CCNC(C)=O)CC1 [compound 224],7.00 to 7.60
8,CC[C@H]1CN(c2nc(N)c(C(=O)NCCCNS(=O)(=O)C(F)(F)F)nc2Cl)CCN1C1CCN(Cc2ccc(C#N)cc2)CC1 [compound 225],< 7.00
9,CC[C@H]1CN(c2nc(N)c(C(=O)NCCCNS(C)(=O)=O)nc2Cl)CCN1C1CCN(Cc2ccc(C#N)cc2)CC1 [compound 226],< 7.00
10,CC[C@H]1CN(c2nc(N)c(C(=O)NCCCO)nc2Cl)CCN1C1CCN(Cc2ccc(Cl)cc2)CC1 [compound 227],7.00 to 7.60
11,CC[C@H]1CN(c2nc(N)c(C(=O)NCCNC(N)=O)nc2Cl)CCN1C1CCN(C(CO)c2ccc(C#N)cc2)CC1 (some centres unmarked) [compound 232],7.00 to 7.60
12,CC[C@H]1CN(c2nc(N)c(C(=O)NCCN)nc2Cl)CCN1C1CCN(Cc2ccc(Cl)cc2C#N)CC1 [compound 234],7.00 to 7.60
13,CC[C@H]1CN(c2nc(N)c(C(=O)NCCNC(=O)OC(C)(C)C)nc2Cl)CCN1C1CCN(Cc2ccc(Cl)cc2C#N)CC1 [compound 235],< 7.00
14,CC[C@H]1CN(c2nc(N)c(C(=O)NCCN/C(N)=N/C#N)nc2Cl)CCN1C1CCN(Cc2ccc(Cl)cc2C#N)CC1 [compound 236],< 7.00
15,CC[C@H]1CN(c2nc(N)c(C(=O)NCCNS(=O)(=O)c3cn(C)cn3)nc2Cl)CCN1C1CCN(Cc2ccc(C#N)cc2)CC1 [compound 237],< 7.00
16,CC[C@H]1CN(c2nc(N)c(C(=O)NCCNS(=O)(=O)CC)nc2Cl)CCN1C1CCN(Cc2ccc(C#N)cc2)CC1 [compound 242],7.00 to 7.60
17,CC[C@H]1CN(c2nc(N)c(C(=O)NCCNS(C)(=O)=O)nc2Cl)CCN1C1CCN(Cc2ccc(C#N)cc2)CC1 [compound 247],7.00 to 7.60
18,CC[C@H]1CN(c2nc(N)c(C(=O)NCCNS(C)(=O)=O)nc2Cl)CCN1C1CCN(Cc2ccc(Cl)cc2N2CC[C@@H](O)C2)CC1 [compound 248],7.00 to 7.60

# Results, then the compound that gave them:
row,pIC50,SMILES
1,7.00 to 7.60,CC[C@H]1CN(c2nc(N)c(C(=O)NCCO)nc2Cl)CCN1C1CCN(Cc2ccc(F)c(F)c2N2CCC(=O)C2)CC1 [compound 188]
2,> 7.60,CC[C@H]1CN(c2nc(N)c(C(=O)NCC(=O)OC)nc2Cl)CCN1C1CCN(Cc2ccc(Cl)cc2)CC1 [compound 214]
3,> 7.60,CC[C@H]1CN(c2nc(N)c(C(=O)NCC(F)(F)F)nc2Cl)CCN1C1CCN(Cc2ccc(Cl)cc2)CC1 [compound 216]
4,> 7.60,CC[C@H]1CN(c2nc(N)c(C(=O)NCC(C)O)nc2Cl)CCN1C1CCN(Cc2ccc(Cl)cc2)CC1 (some centres unmarked) [compound 217]
5,> 7.60,CC[C@H]1CN(c2nc(N)c(C(=O)NC[C@@H](C)O)nc2Cl)CCN1C1CCN(Cc2ccc(Cl)cc2[C@H](O)C(N)=O)CC1 [compound 218]
6,> 7.60,CC[C@H]1CN(c2nc(N)c(C(=O)NC[C@@H](C)O)nc2Cl)CCN1C1CCN(Cc2ccc(Cl)cc2C(O)C(=O)OC)CC1 (some centres unmarked) [compound 219]
7,> 7.60,CC[C@H]1CN(c2nc(N)c(C(=O)NC[C@@H](C)O)nc2Cl)CCN1C1CCN(Cc2ccc(Cl)cc2CC#N)CC1 [compound 220]
8,> 7.60,CC[C@H]1CN(c2nc(N)c(C(=O)NC[C@@H](C)O)nc2Cl)CCN1C1CCN(Cc2ccc(C#N)cc2)CC1 [compound 221]
9,> 7.60,CC[C@H]1CN(c2nc(N)c(C(=O)NC[C@@H](C)O)nc2Cl)CCN1C1CCN(Cc2ccc(Cl)cc2[C@@H](O)C(N)=O)CC1 [compound 222]
10,> 7.60,CC[C@H]1CN(c2nc(N)c(C(=O)NC[C@@H](C)O)nc2Cl)CCN1C1CCN(Cc2ccc(Cl)cc2CCNS(C)(=O)=O)CC1 [compound 223]
11,> 7.60,CC[C@H]1CN(c2nc(N)c(C(=O)NCCC#N)nc2Cl)CCN1C1CCN(Cc2ccc(C#N)cc2)CC1 [compound 228]
12,> 7.60,CC[C@H]1CN(c2nc(N)c(C(=O)NCCNc3ncccn3)nc2Cl)CCN1C1CCN(Cc2ccc(Cl)cc2)CC1 [compound 229]
13,> 7.60,CC[C@H]1CN(c2nc(N)c(C(=O)NCCNC(C)=O)nc2Cl)CCN1C1CCN(Cc2ccc(Cl)cc2)CC1 [compound 230]
14,> 7.60,CC[C@H]1CN(c2nc(N)c(C(=O)NCCNC(N)=O)nc2Cl)CCN1C1CCN(C(CO)c2ccc(Cl)cc2)CC1 (some centres unmarked) [compound 231]
15,> 7.60,CC[C@H]1CN(c2nc(N)c(C(=O)NCCN)nc2Cl)CCN1C1CCN(Cc2ccc(Cl)cc2)CC1 [compound 233]
16,> 7.60,CC[C@H]1CN(c2nc(N)c(C(=O)NCCNS(=O)(=O)C(F)(F)F)nc2Cl)CCN1C1CCN(Cc2ccc(Cl)cc2)CC1 [compound 238]
17,> 7.60,CC[C@H]1CN(c2nc(N)c(C(=O)NCCNS(=O)(=O)C(F)(F)F)nc2Cl)CCN1C1CCN(Cc2ccc(C#N)cc2)CC1 [compound 239]
18,> 7.60,CC[C@H]1CN(c2nc(N)c(C(=O)NCCNS(=O)(=O)C(F)(F)F)nc2Cl)CCN1C1CCN(Cc2ccc(F)c(F)c2N2CC[C@@H](O)C2)CC1 [compound 240]
19,> 7.60,CC[C@H]1CN(c2nc(N)c(C(=O)NCCNS(=O)(=O)C(F)(F)F)nc2Cl)CCN1C1CCN(Cc2ccc(Cl)cc2N2CC[C@@H](O)C2)CC1 [compound 241]
20,> 7.60,CC[C@H]1CN(c2nc(N)c(C(=O)NCCNS(C)(=O)=O)nc2Cl)CCN1C1CCN(Cc2ccc(Cl)cc2C(=N)N)CC1 [compound 243]
21,> 7.60,CC[C@H]1CN(c2nc(N)c(C(=O)NCCNS(C)(=O)=O)nc2Cl)CCN1C1CCN([C@@H](CO)c2ccc(Cl)cc2)CC1 [compound 244]
22,> 7.60,CC[C@H]1CN(c2nc(N)c(C(=O)NCCNS(C)(=O)=O)nc2Cl)CCN1C1CCN(Cc2ccc(Cl)cc2)CC1 [compound 245]
23,> 7.60,CCOC(=O)/N=C(\N)c1cc(Cl)ccc1CN1CCC(N2CCN(c3nc(N)c(C(=O)NCCNS(C)(=O)=O)nc3Cl)C[C@@H]2CC)CC1 [compound 246]
